Series [1] in a line: Chemical inhibition assay, glucuronidation of PI-103 in pooled HLM. In kind it is in vitro ADME, human.
The nature of series [2]: Chemical inhibition assay, phase I metabolism of PI-103 in pooled HLM. The note with it: inhibitor 0.1 μM (CYP1A2 inhibitor). Format: in vitro ADME, human.

The record followed here is publication PMC9050161 (RSC Advances, 2020).

As to `Cc1cn(-c2cc(NC(=O)c3ccc(C)c(Nc4nccc(-c5cccnc5)n4)c3)cc(C(F)(F)F)c2)cn1` [nilotinib], the “activity of PI-103 glucuronidation in HLM” value in series [1] (inhibitor 10 μM) is listed as 82.37 % of the control values.

With `C[C@]12CC[C@@H](O)C[C@@H]1CC[C@@H]1[C@@H]2CC[C@]2(C)C(=O)CC[C@@H]12` [androsterone], in series [1] (inhibitor 10 μM), the “activity of PI-103 glucuronidation in HLM” value was 69.36 % of the control values.

Regarding `O=c1cc(-c2ccccc2)oc2c1ccc1ccccc12` [α-naphthoflavone], in series [2], the “remaining activity of PI-103 phase I metabolism in HLM” value is reported as 53.37 % of the control values.

Consider `C[C@H](CCC(=O)O)[C@H]1CC[C@H]2[C@@H]3[C@H](O)C[C@@H]4C[C@H](O)CC[C@]4(C)[C@H]3CC[C@]12C` [CDCA], for which, in series [1] (inhibitor 20 μM), the “activity of PI-103 glucuronidation in HLM” value is “no changes”.

Take `CN(C)CCC=C1c2ccccc2CCc2ccccc21` [amitriptyline]: in series [1] (inhibitor 10 μM), the “activity of PI-103 glucuronidation in HLM” value was “no changes”.
